System: adolescents with single ventricle physiology after Fontan palliation
Test: Echocardiographic assessment of ventricular performance (blood pool MPI, tissue Doppler MPI, average isovolumic contraction and relaxation)
Type: in vivo, human
Set-up: Average Isovolumic Contraction, Baseline measurement / Average Isovolumic Contraction, Follow-up measurement: unit not given here
Conditions: for Average Isovolumetric Relaxation, Follow-up measurement / Average Isovolumetric Relaxation, Baseline measurement: in ms (unit assumed)
Excerpt: Ventricular performance and cardiac contractility are important measurements that can reveal impairment of cardiovascular health before overt heart failure is present. Ventricular performance can be assessed using echocardiographic methods and quantified via a myocardial performance index or MPI. MPI is an index that combines systolic and diastolic function. Specifically, MPI is defined as the sum of isovolumic contraction time and isovolumic relaxation time divided by the ejection time.
Various versions of MPI are known in the art, and each version of MPI may be used to assess ventricular performance. For instance, MPI indices may include but are not limited to blood pool MPI, tissue doppler MPI, average isovolumetric contraction, and average isovolumetric relaxation.
The primary outcome of ventricular performance with assessed using echocardiographic methods and measured according to a myocardial performance Index (MPI). The MPI is a ventricular geometry-independent measure of combined systolic and diastolic ventricular performance (Charles S. Kleinman et al, 2008—Health and Fitness). It is obtained by indexing the sum of isovolumetric contraction and relaxation time to ejection time.
Table 18 summarizes results for the key outcome from the Echocardiographic Assessment of Ventricular Performance—Blood Pool MPI. Out of the 30 subjects enrolled in the treatment arms of the trial, 27 subjects had paired measurements. The structure of the table is similar to the one for exercise variables.
Tables 19-21 and FIGS. 9-15 report similar results for three other versions of MPI: Tissue Doppler MPI, and Average Isovolumetric Contraction and Relaxation.

CCCOc1ccc(S(=O)(=O)NCCC2CCCN2C)cc1-c1nc2c(CCC)nn(C)c2c(=O)[nH]1 (stereo not shown) [udenafil]
Average Isovolumetric Relaxation, Difference, FU − BL (37.5 mg daily, N 5): 9.0 ± 11.5
Average Isovolumic Contraction, Difference, FU − BL (37.5 mg daily, N 5): −3.5 ± 50.0
Average Isovolumic Contraction, Follow-up measurement (37.5 mg daily, N 5): 86.4 ± 22.7
Blood Pool MPI, Difference, FU − BL (37.5 mg daily, N 5): −0.052 ± 0.166
Blood Pool MPI, Follow-up measurement (37.5 mg daily, N 5): 0.504 ± 0.187
Tissue Doppler MPI, Difference, FU − BL (37.5 mg daily, N 5): −0.052 ± 0.398
Tissue Doppler MPI, Follow-up measurement (37.5 mg daily, N 5): 0.637 ± 0.206
Average Isovolumetric Relaxation, Follow-up measurement (37.5 mg daily, N 5): 94.0 ± 26.7
Average Isovolumic Contraction, Baseline measurement (37.5 mg daily, N 6): 99.2 ± 50.7
Blood Pool MPI, Baseline measurement (37.5 mg daily, N 6): 0.537 ± 0.304
Tissue Doppler MPI, Baseline measurement (37.5 mg daily, N 6): 0.701 ± 0.417
Average Isovolumetric Relaxation, Baseline measurement (37.5 mg daily, N 6): 83.8 ± 16.1
Average Isovolumetric Relaxation, Difference, FU − BL (37.5 mg twice daily, N 6): 0.8 ± 21.2
Average Isovolumic Contraction, Baseline measurement (37.5 mg twice daily, N 6): 109.4 ± 51.1
Average Isovolumic Contraction, Difference, FU − BL (37.5 mg twice daily, N 6): −5.8 ± 25.7
Average Isovolumic Contraction, Follow-up measurement (37.5 mg twice daily, N 6): 103.6 ± 32.4
Blood Pool MPI, Baseline measurement (37.5 mg twice daily, N 6): 0.496 ± 0.150
Blood Pool MPI, Difference, FU − BL (37.5 mg twice daily, N 6): −0.003 ± 0.102
Blood Pool MPI, Follow-up measurement (37.5 mg twice daily, N 6): 0.494 ± 0.087
Tissue Doppler MPI, Baseline measurement (37.5 mg twice daily, N 6): 0.818 ± 0.361
Tissue Doppler MPI, Difference, FU − BL (37.5 mg twice daily, N 6): −0.089 ± 0.142
Tissue Doppler MPI, Follow-up measurement (37.5 mg twice daily, N 6): 0.729 ± 0.230
Average Isovolumetric Relaxation, Baseline measurement (37.5 mg twice daily, N 6): 100.8 ± 32.3
Average Isovolumetric Relaxation, Follow-up measurement (37.5 mg twice daily, N 6): 101.6 ± 40.0
Average Isovolumetric Relaxation, Difference, FU − BL (87.5 mg daily, N 6): −6.9 ± 10.1
Average Isovolumic Contraction, Baseline measurement (87.5 mg daily, N 6): 122.4 ± 36.7
Average Isovolumic Contraction, Difference, FU − BL (87.5 mg daily, N 6): −7.4 ± 26.5
Average Isovolumic Contraction, Follow-up measurement (87.5 mg daily, N 6): 115.0 ± 32.9
Blood Pool MPI, Baseline measurement (87.5 mg daily, N 6): 0.588 ± 0.158
Blood Pool MPI, Difference, FU − BL (87.5 mg daily, N 6): −0.076 ± 0.144
Blood Pool MPI, Follow-up measurement (87.5 mg daily, N 6): 0.512 ± 0.163
Tissue Doppler MPI, Baseline measurement (87.5 mg daily, N 6): 0.804 ± 0.118
Tissue Doppler MPI, Difference, FU − BL (87.5 mg daily, N 6): −0.089 ± 0.131
Tissue Doppler MPI, Follow-up measurement (87.5 mg daily, N 6): 0.716 ± 0.142
Average Isovolumetric Relaxation, Baseline measurement (87.5 mg daily, N 6): 93.4 ± 11.0
Average Isovolumetric Relaxation, Follow-up measurement (87.5 mg daily, N 6): 86.4 ± 15.3
Average Isovolumetric Relaxation, Difference, FU − BL (87.5 mg twice daily, N 4): 5.2 ± 12.6
Average Isovolumic Contraction, Baseline measurement (87.5 mg twice daily, N 4): 84.1 ± 20.3
Average Isovolumic Contraction, Difference, FU − BL (87.5 mg twice daily, N 4): 4.1 ± 12.1
Tissue Doppler MPI, Baseline measurement (87.5 mg twice daily, N 4): 0.540 ± 0.019
Tissue Doppler MPI, Difference, FU − BL (87.5 mg twice daily, N 4): 0.060 ± 0.068
Average Isovolumetric Relaxation, Baseline measurement (87.5 mg twice daily, N 4): 72.3 ± 10.5
Blood Pool MPI, Baseline measurement (87.5 mg twice daily, N 5): 0.548 ± 0.136
Blood Pool MPI, Difference, FU − BL (87.5 mg twice daily, N 5): −0.118 ± 0.090
Average Isovolumic Contraction, Follow-up measurement (87.5 mg twice daily, N 6): 83.8 ± 26.4
Blood Pool MPI, Follow-up measurement (87.5 mg twice daily, N 6): 0.410 ± 0.078
Tissue Doppler MPI, Follow-up measurement (87.5 mg twice daily, N 6): 0.638 ± 0.168
Average Isovolumetric Relaxation, Follow-up measurement (87.5 mg twice daily, N 6): 82.4 ± 11.4
Average Isovolumetric Relaxation, Difference, FU − BL (125 mg daily, N 5): −5.4 ± 11.1
Average Isovolumic Contraction, Difference, FU − BL (125 mg daily, N 5): −8.0 ± 24.6
Average Isovolumic Contraction, Follow-up measurement (125 mg daily, N 5): 150.5 ± 60.5
Blood Pool MPI, Difference, FU − BL (125 mg daily, N 5): −0.054 ± 0.180
Blood Pool MPI, Follow-up measurement (125 mg daily, N 5): 0.696 ± 0.202
Tissue Doppler MPI, Difference, FU − BL (125 mg daily, N 5): −0.074 ± 0.141
Tissue Doppler MPI, Follow-up measurement (125 mg daily, N 5): 0.822 ± 0.271
Average Isovolumetric Relaxation, Follow-up measurement (125 mg daily, N 5): 96.8 ± 17.4
Average Isovolumic Contraction, Baseline measurement (125 mg daily, N 6): 152.4 ± 64.4
Blood Pool MPI, Baseline measurement (125 mg daily, N 6): 0.728 ± 0.155
Tissue Doppler MPI, Baseline measurement (125 mg daily, N 6): 0.861 ± 0.323
Average Isovolumetric Relaxation, Baseline measurement (125 mg daily, N 6): 99.5 ± 25.0
Average Isovolumetric Relaxation, Difference, FU − BL (All subjects, N 26): 0.1 ± 14.4
Average Isovolumic Contraction, Difference, FU − BL (All subjects, N 26): −4.6 ± 28.3
Tissue Doppler MPI, Difference, FU − BL (All subjects, N 26): −0.056 ± 0.198
Blood Pool MPI, Difference, FU − BL (All subjects, N 27): −0.059 ± 0.134
Average Isovolumic Contraction, Baseline measurement (All subjects, N 28): 115.6 ± 50.5
Average Isovolumic Contraction, Follow-up measurement (All subjects, N 28): 107.1 ± 41.3
Blood Pool MPI, Follow-up measurement (All subjects, N 28): 0.517 ± 0.165
Tissue Doppler MPI, Baseline measurement (All subjects, N 28): 0.760 ± 0.299
Tissue Doppler MPI, Follow-up measurement (All subjects, N 28): 0.707 ± 0.201
Average Isovolumetric Relaxation, Baseline measurement (All subjects, N 28): 91.2 ± 22.2
Average Isovolumetric Relaxation, Follow-up measurement (All subjects, N 28): 92.0 ± 23.8
Blood Pool MPI, Baseline measurement (All subjects, N 29): 0.581 ± 0.197
Improvement in Blood Pool MPI (some patients, baseline to day 5): ≤ 21.5%
